# Results: patent US9139581B2 (PORTOLA PHARMACEUTICALS, INC., priority 2008, dated 2015)
# Read-outs that look alike come from different tables or passages of the source.
# How the values were obtained:
# [1] = tested on: human platelet-rich plasma (PRP); test: Inhibition of Convulxin-mediated platelet aggregation in vitro (PRP); assay type: cell-based; details: Table 4, Convulxin-induced aggregation in human PRP, unit inferred
# Protocol: The ability for candidate molecules to inhibit syk-mediated platelet functions are tested by measuring the inhibition the GPVI-specific agonist Convulxin-induced human platelet calcium-mobilization or aggregation. Calcium-mobilization is assessed in human washed platelets in a 96-well microtiter format.
# Inhibition of Convulxin-Mediated Platelet Aggregation In Vitro
# Platelet-rich plasma (PRP) is prepared by centrifugation of whole blood at 160×g for 20 minutes at room temperature. The PRP layer is removed, transferred to a new tube, and the platelet count is adjusted, if advantageous, to achieve a platelet concentration of ˜3×10^8 platelets/ml using platelet-poor plasma (PPP). PPP is prepared by centrifugation of the remaining blood sample (after removal of PRP) for 20 minutes at 800×g. This preparation of PRP can subsequently be used for aggregation assays in either a 96-well plate or standard cuvette aggregometry.
# Inhibition of Convulxin-induced aggregation is determined in 96-well flat-bottom microtiter plates using a microtiter plate shaker and plate reader similar to the procedure described by Frantantoni et al., Am. J. Clin. Pathol. […] All steps are performed at room temperature. For 96-well plate aggregation using platelet-rich plasma (PRP), the total reaction volume of 0.2 ml/well includes 190 μl of PRP (˜3×10^8 platelets/ml, see above), and 5 μl of either serial dilution of test compounds in 30% DMSO or buffer (for control wells). After 20 minutes preincubation at room temperature 5 μl of 320 ng/ml Convulxin agonist solution is added to each well to give a final concentration of 8 ng/ml Convulxin. The plates are then agitated for 5 min on a microtiter plate shaker and the 5 minute reading is obtained in the microtitre plate reader (Softmax, Molecular Devices, Menlo Park, Calif.). Aggregation is calculated from the decrease of OD at 650 nm at t=5 minutes. IC50s were derived by non-linear regression analysis.
# Inhibition of Convulxin-induced aggregation was also determined for cuvette light transmittance aggregation assays, serial dilutions (1:2) of test compounds were prepared in 30% DMSO in a 96 well V-bottom plate (final DMSO concentration in the cuvette was 0.3%). […] IC50s were derived by non-linear regression analysis.
# [2] = target: T1, full length active recombinant SYK enzyme (Homo sapiens, UniProt P43405); test: Inhibition of Syk tyrosine phosphorylation activity (LANCE TR-FRET); assay type: biochemical; details: 1 nM SYK, 100 μM ATP
# T1 construct: full length active recombinant SYK enzyme (Millipore, Calif.); purchased Millipore
# Outline: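 The reaction is quenched with buffer holding Eu-anti-phosphotyrosine and streptavidin-APC, and detection runs 1 hr at room temperature. TR-FRET is read and IC50s come from non-linear regression.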
# [3] = target: T2, JAK2 (Homo sapiens, UniProt O60674); test: Millipore Upstate KinaseProfiler screening, JAK2 catalytic activity; assay type: biochemical; details: Table 5; read-out: Inhibition (IC50%) of catalytic activity of JAK 2
# T2 construct: purchased Millipore Upstate KinaseProfiler
# T2 sequence (O60674 whole entry): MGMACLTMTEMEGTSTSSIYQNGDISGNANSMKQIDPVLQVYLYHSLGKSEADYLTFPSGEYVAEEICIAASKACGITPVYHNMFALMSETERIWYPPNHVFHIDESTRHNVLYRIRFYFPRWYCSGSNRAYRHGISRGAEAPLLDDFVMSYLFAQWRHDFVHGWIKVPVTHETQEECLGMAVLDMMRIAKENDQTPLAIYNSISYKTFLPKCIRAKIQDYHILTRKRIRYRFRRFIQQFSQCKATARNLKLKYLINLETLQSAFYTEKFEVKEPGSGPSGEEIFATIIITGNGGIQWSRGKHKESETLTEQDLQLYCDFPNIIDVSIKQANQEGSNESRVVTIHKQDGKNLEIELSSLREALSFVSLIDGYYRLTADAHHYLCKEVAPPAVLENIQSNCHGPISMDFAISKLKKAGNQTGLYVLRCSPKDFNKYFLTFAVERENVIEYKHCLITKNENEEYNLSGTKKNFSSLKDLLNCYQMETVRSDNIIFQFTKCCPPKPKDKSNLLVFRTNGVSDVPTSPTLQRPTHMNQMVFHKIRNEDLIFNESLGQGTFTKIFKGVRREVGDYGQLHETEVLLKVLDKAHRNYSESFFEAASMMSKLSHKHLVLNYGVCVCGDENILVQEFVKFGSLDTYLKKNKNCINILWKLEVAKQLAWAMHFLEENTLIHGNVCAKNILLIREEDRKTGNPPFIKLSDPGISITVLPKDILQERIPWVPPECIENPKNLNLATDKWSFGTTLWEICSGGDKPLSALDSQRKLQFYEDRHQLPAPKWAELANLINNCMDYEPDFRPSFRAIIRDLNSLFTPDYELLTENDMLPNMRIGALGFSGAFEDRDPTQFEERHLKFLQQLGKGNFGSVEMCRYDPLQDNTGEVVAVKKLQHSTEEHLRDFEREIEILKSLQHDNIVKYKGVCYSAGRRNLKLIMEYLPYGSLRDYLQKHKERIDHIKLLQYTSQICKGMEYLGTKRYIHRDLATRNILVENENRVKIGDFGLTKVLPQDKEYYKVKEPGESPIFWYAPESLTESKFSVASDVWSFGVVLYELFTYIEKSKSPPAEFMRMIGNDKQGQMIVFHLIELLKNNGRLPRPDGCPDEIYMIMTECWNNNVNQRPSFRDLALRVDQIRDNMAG
# [4] = target: T3, Purified human JAK3 (Homo sapiens, UniProt P52333); test: Millipore Upstate KinaseProfiler screening, JAK3 catalytic activity; assay type: biochemical; details: for IC50: Table 5, read-out: Inhibition (IC50%) of catalytic activity of JAK 3; for inhibition at 0.3 µM: 0.3 μM compound
# T3 construct: purchased Millipore Upstate KinaseProfiler; host or cells: insect cells
# T3 sequence (P52333 781-1124 limits assumed): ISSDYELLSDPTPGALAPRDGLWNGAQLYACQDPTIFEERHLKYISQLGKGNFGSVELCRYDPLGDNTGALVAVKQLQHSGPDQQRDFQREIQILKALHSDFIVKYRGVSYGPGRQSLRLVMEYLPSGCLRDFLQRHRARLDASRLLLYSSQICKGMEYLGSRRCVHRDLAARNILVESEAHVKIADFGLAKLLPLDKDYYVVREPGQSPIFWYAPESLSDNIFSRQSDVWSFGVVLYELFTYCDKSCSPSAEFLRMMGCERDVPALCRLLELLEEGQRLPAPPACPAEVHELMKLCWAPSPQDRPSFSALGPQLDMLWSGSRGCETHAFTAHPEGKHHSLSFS
# Protocol: This assay is a direct measurement of the effect of compound on the catalytic activity of JAK3. Purified human JAK3 (GenBank AF513860) sequence (residue 781-C terminus) was obtained from insect cells. The catalytic hydrolysis of ATP is measured using a radiometric filter binding method. Incubation of kinase with ^33-[P]ATP and substrate leads to incorporation of ^33[P] into the substrate which can then be separated from the other reaction components by filtration. Assays were performed using 10 μM ATP and in the absence or presence of 1, 0.3, or 0.1 μM compound. Activity was expressed as % of inhibition of control.
# In the table below, activity in the Jak assays is provided as follows: +++++=IC50<0.0010 μM; ++++=0.0010 μM<IC50<0.010 μM, +++=0.010 μM<IC50<0.10 μM, ++=0.10 μM<IC50<1 μM, +=IC50>1 μM.
# [5] = target: T4, JAK1 (Homo sapiens, UniProt P23458); test: Millipore Upstate KinaseProfiler screening, JAK1 catalytic activity; assay type: biochemical; details: Table 5; read-out: Inhibition (IC50%) of catalytic activity of JAK 1
# T4 construct: purchased Millipore Upstate KinaseProfiler
# T4 sequence (P23458 whole entry): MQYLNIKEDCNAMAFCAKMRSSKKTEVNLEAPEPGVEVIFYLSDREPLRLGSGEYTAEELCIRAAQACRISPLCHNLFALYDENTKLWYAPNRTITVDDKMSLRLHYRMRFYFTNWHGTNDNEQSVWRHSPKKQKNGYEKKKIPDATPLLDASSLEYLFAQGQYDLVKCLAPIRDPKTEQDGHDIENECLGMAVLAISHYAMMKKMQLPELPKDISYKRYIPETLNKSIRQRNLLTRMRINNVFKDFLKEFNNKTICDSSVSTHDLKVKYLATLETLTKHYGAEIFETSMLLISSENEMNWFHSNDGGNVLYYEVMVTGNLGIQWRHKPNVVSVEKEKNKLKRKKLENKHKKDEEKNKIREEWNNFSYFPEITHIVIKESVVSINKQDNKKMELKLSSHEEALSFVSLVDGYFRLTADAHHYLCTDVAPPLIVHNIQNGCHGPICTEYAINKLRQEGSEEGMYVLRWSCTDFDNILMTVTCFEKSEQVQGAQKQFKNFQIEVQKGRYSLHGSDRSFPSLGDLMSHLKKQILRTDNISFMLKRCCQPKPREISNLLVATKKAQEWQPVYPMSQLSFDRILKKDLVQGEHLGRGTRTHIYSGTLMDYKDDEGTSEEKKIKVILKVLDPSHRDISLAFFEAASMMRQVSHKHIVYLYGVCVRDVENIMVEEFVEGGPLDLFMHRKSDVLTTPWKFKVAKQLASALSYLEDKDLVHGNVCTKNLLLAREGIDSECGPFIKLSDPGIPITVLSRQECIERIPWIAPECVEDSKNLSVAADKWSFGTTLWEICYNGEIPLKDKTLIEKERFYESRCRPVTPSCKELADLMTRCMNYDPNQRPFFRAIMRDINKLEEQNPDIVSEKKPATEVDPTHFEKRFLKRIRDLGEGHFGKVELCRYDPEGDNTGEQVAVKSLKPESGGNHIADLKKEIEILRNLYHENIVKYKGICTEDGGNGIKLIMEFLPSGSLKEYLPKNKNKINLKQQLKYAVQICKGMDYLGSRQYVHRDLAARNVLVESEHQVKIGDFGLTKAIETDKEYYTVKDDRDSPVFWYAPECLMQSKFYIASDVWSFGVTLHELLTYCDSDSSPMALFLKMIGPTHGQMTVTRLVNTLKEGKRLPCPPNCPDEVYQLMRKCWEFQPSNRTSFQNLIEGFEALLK
# [6] = Table 3, read-out: Syk IC50 code
Compound,IC50 [1] [µM],"IC50 [2, 6] [nM]","IC50 ([2]; Table 4, read-out: syk IC50) [nM]",also measured
"CC(=O)N1CCN(c2ccc(Nc3nc(N4CCC(CN)CC4)c4nc[nH]c4n3)cc2)CC1 [Example 15, 1-(4-(4-(6-(4-(aminomethyl)piperidin-1-yl)-9H-purin-2-ylamino)phenyl)piperazin-1-yl)ethanone]",50,10 to 100,10 to 100,
N#CCC(=O)N1CCCC(Nc2nc(Nc3ccc(C(N)=O)cc3)nc3[nH]ccc23)C1 (stereo not drawn) [drawing 212],,,,IC50 [3]: 10 to 100 nM; IC50 [4]: 10 to 100 nM; IC50 [5]: 10 to 100 nM
"CC(=O)N1CCN(c2ccc(Nc3nc(N4CCCC(C(N)=O)C4)c4cc[nH]c4n3)cc2)CC1 (stereo not drawn) [Example 9, 1-(2-(4-(4-acetylpiperazin-1-yl)phenylamino)-7H-pyrrolo[2,3-d]pyrimidin-4-yl)piperidine-3-carboxamide]",12.3,,100 to 1000,
"NC(=O)C1CCCN(c2nc(Nc3ccc(N4CCNCC4)cc3)nc3[nH]ccc23)C1 (stereo not drawn) [Example 8, 1-(2-(4-(piperazin-1-yl)phenylamino)-7H-pyrrolo[2,3-d]pyrimidin-4-yl)piperidine-3-carboxamide]",25.3,,100 to 1000,
CC(=O)N1CCN(c2ccc(Nc3nc(N4CCC(CN)CC4)c4cc[nH]c4n3)cc2)CC1 [drawing 208],,,,IC50 [3]: 100 to 1000 nM; IC50 [4]: 100 to 1000 nM; IC50 [5]: 100 to 1000 nM
"NCC1CCN(c2nc(Nc3ccc(N4CCNCC4)cc3)nc3[nH]ccc23)CC1 [Example 10, 4-(4-(aminomethyl)piperidin-1-yl)-N-(4-(piperazin-1-yl)phenyl)-7H-pyrrolo[2,3-d]pyrimidin-2-amine]",33.2,,1 to 10,
"NCC1CCN(c2nc(Nc3ccc4c(c3)CCC(=O)N4)ncc2F)CC1 [Example 33, 6-(4-(4-(aminomethyl)piperidin-1-yl)-5-fluoropyrimidin-2-ylamino)-3,4-dihydroquinolin-2(1H)-one]",0.336,,10 to 100,
NC(=O)c1c[nH]c2nc(Nc3ccc4c(c3)CCC(=O)N4)nc(NC3CC3)c12 [drawing 211],,,,IC50 [3]: 100 to 1000 nM; IC50 [4]: > 1000 nM; IC50 [5]: > 1000 nM
"CC(=O)N1CCN(c2ccc(Nc3nc(N4CCC[C@H](N)C4)c4cc[nH]c4n3)cc2)CC1 [(S)-1-(4-(4-(4-(3-aminopiperidin-1-yl)-7H-pyrrolo[2,3-d]pyrimidin-2-ylamino)phenyl)piperazin-1-yl)ethanone]",13.8,,100 to 1000,
"NCC1CCN(c2nc(Nc3ccc4cn[nH]c4c3)ncc2F)CC1 [Example 16, N-(4-(4-(aminomethyl)piperidin-1-yl)-5-fluoropyrimidin-2-yl)-1H-indazol-6-amine]",0.295,,10 to 100,
N#Cc1c[nH]c2nc(Nc3ccc4c(c3)CCC(=O)N4)nc(NC3CC3)c12 [drawing 209],,,,IC50 [3]: 10 to 100 nM; IC50 [4]: 10 to 100 nM; IC50 [5]: 10 to 100 nM
c1cc2c(NC3CC3)nc(Nc3ccc4cn[nH]c4c3)nc2[nH]1 [drawing 204],,,,IC50 [3]: 100 to 1000 nM; IC50 [4]: 100 to 1000 nM; IC50 [5]: 100 to 1000 nM
"NCC1CCN(c2nc(Nc3ccc(C(N)=O)cc3)ncc2F)CC1 [Example 31, 4-(4-(4-(aminomethyl)piperidin-1-yl)-5-fluoropyrimidin-2-ylamino)benzamide]",0.346,,10 to 100,
"CC(=O)N(C)c1ccc(Nc2ncc(F)c(N3CCC(CN)CC3)n2)cc1 [Example 29, N-(4-(4-(4-(aminomethyl)piperidin-1-yl)-5-fluoropyrimidin-2-ylamino)phenyl)-N-methylacetamide]",0.316,,10 to 100,
"CC(=O)N1CCN(c2ccc(Nc3nc(N4CCC(CN)CC4)c4c(C#N)c[nH]c4n3)cc2)CC1 [Example 14, 2-(4-(4-acetylpiperazin-1-yl)phenylamino)-4-(4-(aminomethyl)piperidin-1-yl)-7H-pyrrolo[2,3-d]pyrimidine-5-carbonitrile]",50,10 to 100,10 to 100,
"CC(=O)N1CCN(c2ccc(Nc3ncc(F)c(N4CCC(CN)CC4)n3)cc2)CC1 [Example 18, 1-(4-(4-(4-(4-(aminomethyl)piperidin-1-yl)-5-fluoropyrimidin-2-ylamino)phenyl)piperazin-1-yl)ethanone]",0.195,,10 to 100,
CN(C)C(=O)C1CCN(c2ccc(Nc3nc(NC4CC4)c4cc[nH]c4n3)cc2)CC1,,,,inhibition at 0.3 µM ([4]; 10 μM ATP): 82%
"CC(=O)N1CCN(c2ccc(Nc3nc(N[C@H](C)CO)c4cc[nH]c4n3)cc2)CC1 [Example 98A, (R)-1-(4-(4-(4-(1-hydroxypropan-2-ylamino)-7H-pyrrolo[2,3-d]pyrimidin-2-ylamino)phenyl)piperazin-1-yl)ethanone]",,100 to 1000,,
"COC(=O)N(C)c1ccc(Nc2nc(NC3CCC3)c3cc[nH]c3n2)cc1 [Example 72, Methyl 4-(4-(cyclobutylamino)-7H-pyrrolo[2,3-d]pyrimidin-2-ylamino)phenyl(methyl)carbamate]",,100 to 1000,,
"NC(=O)c1cnc(-[n+]2ccc(-c3ccc(N)cc3)cc2)nc1NC1CC1 [Example 5, 4-(4-aminophenyl)-1-(5-carbamoyl-4-(cyclopropylamino)pyrimidin-2-yl)pyridinium]",,> 1000,,
"6-(5-fluoro-4-(3-oxopiperazin-1-yl)pyrimidin-2-ylamino)-3,4-dihydroquinolin-2(1H)-one [Example 123]",,> 1000,,
"N[C@H]1CC[C@@H](Nc2nc(Nc3ccc4c(c3)CCC(=O)N4)ncc2C2CC2)CC1 [Example 144, 6-(4-((1s,4s)-4-aminocyclohexylamino)-5-cyclopropylpyrimidin-2-ylamino)-3,4-dihydroquinolin-2(1H)-one]",,10 to 100,,
"O=C1CCc2cc(Nc3nc(NC4CC4)c4c(-c5ccncc5)c[nH]c4n3)ccc2N1 [Example 48, 6-(4-(cyclopropylamino)-5-(pyridin-4-yl)-7H-pyrrolo[2,3-d]pyrimidin-2-ylamino)-3,4-dihydroquinolin-2(1H)-one]",,10 to 100,,
c1cc2c(NC3CC3)nc(Nc3ccc4cn[nH]c4c3)nc2[nH]1 [drawing 213],,,,"inhibition at 0.3 µM ([4]; 10 μM ATP): 41%; inhibition at 1 µM ([4]; 1 μM compound, 10 μM ATP): 77%"
"O=S(=O)(c1ccc(Nc2nc(NC3CCC3)c3cc[nH]c3n2)cc1)N1CCC(O)CC1 [Example 52, 1-(4-(4-(cyclobutylamino)-7H-pyrrolo[2,3-d]pyrimidin-2-ylamino)phenylsulfonyl)piperidin-4-ol]",,10 to 100,,
"O=C(O)CN1C(=O)CCc2cc(Nc3nc(NC4CCC4)c4cc[nH]c4n3)ccc21 [Example 70, 2-(6-(4-(cyclobutyamino)-7H-pyrrolo[2,3-d]pyrimidine-2-ylamino)-2-oxo-3,4-dihydroquinolin-1(2H)-yl)acetic acid]",,10 to 100,,
"Brc1c[nH]c2nc(Nc3ccc4cn[nH]c4c3)nc(NC3CCC3)c12 [Example 49, 5-bromo-N4-cyclobutyl-N2-(1H-indazol-6-yl)-7H-pyrrolo[2,3-d]pyrimidine-2,4-diamine]",,1 to 10,,
"CC(=O)N1CCN(c2ccc(Nc3nc(N4CCC(CN)CC4)c4cc[nH]c4n3)cc2)CC1 [Example 11, 1-(4-(4-(4-(4-(aminomethyl)piperidin-1-yl)-7H-pyrrolo[2,3-d]pyrimidin-2-ylamino)phenyl)piperazin-1-yl)ethanone]",5.28,,1 to 10,
CS(=O)(=O)Cc1ccc(Nc2nc(NC3CCC3)c3cc[nH]c3n2)cc1 [Example 76],,100 to 1000,,
